From patent US20200080053A1, “USE OF PEPTIDE COMPOUNDS FOR PROMOTING SURVIVAL, GROWTH AND CELL DIFFERENTIATION” (Axoltis Pharma, priority 2016, published 2020)

How the values were obtained:
Type in all cases: cell-based
[1] = tested on: human mesenchymal stem cells (hMSC); experiment: Neural differentiation of hMSCs: gene expression by real-time PCR
Protocol: (§1) To investigate the neural differentiation capacity of the peptides, 25 cm^2 flasks and 12-wells culture plates were coated with sterile aqueous solutions of either NX210 or NS640 at a concentration of 80 μg/cm^2. Coatings were carried out at 37° C. and 5% CO2 over-night prior to cell plating.
On Day 0 (D0), hMSC were seeded at a concentration of 3,000 cells/cm^2 in pre-coated 25 cm^2 flasks or 12-well culture plates in complete medium and culture was placed at 37° C. in a humid environment and under 5% CO2. After 24h, medium was changed and replaced by different combinations of media containing either: MEMalpha—bFGF 12.5 ng/mL—FBS 2%—P/S 0.1%; MEMalpha—bFGF 12.5 ng/mL—FBS 10%—P/S 0.1%; MEMalpha—FBS 2%—P/S 0.1% (control condition); MEMalpha—FBS 10%—P/S 0.1% (control condition). The cells were placed at 37° C. in a humid environment and under 5% CO2, and medium was changed twice a week. On Day 8, medium was replaced by medium containing ATRA in the place of bFGF and thus was changed with: MEMalpha—ATRA […]—FBS 2%—P/S 0.1%; MEMalpha—ATRA 20 μM—FBS 10%—P/S 0.1%; MEMalpha—FBS 2%—P/S 0.1% (control condition); MEMalpha—FBS 10%—P/S 0.1% (control condition). The cells were placed at 37° C. in a humid environment and under 5% CO2. Medium was changed twice a week. […]
Total RNA was extracted using RNAeasy total purification kit following instructions of the manufacturer (Qiagen). cDNA were generated using a High-Capacity cDNA Reverse Transcription kit (Applied Biosystems) as described by the manufacturer.
The expression levels of genes (GFAP, Musashi 1, Nestin, Beta3-Tubuline, MAP-2 and GAPDH) were analyzed by real-time PCR using TaqMan gene Expression Master Mix (Applied Biosystems) on the Applied Biosystems 7900 Real time PCR system (Life technologies). Samples were analyzed in triplicates. Data were normalized using the GAPDH gene as an internal control and relative quantification (RQ) of the genes in a sample was determined according to the equation 2^−Δct.

[2] = tested on: ESCs / neuroepithelial progenitors; experiment: Selection of neuroepithelial progenitors from ESC embryoid bodies, Nestin immunostaining
Protocol: For these experiments, the differentiation of ESCs was preferably orientated to the neuronal differentiation pathway, according to the protocol adapted from Okabe et al., (Mechanisms of Development, 59:89-102, 1996).
In brief, to start the differentiation, the ESCs were grown on gelatin without LIF for two days. The cells were carefullly trypsinated to collect small ESC aggregates. Then, these aggregates were transferred on a Petri dish without any coating to produce non-adherent spherical cell bodies, namely the embryoid bodies (EB).
After 5 days of culture, the EB were transferred onto a new Petri dish covered with gelatin to enable cell adhesion.
After 24h of culture, the culture medium with fetal bovine serum 10% was replaced by a culture medium serum free to select neuroepithelial progenitors and the peptide NX210 (SEQ ID NO: 6) was added in the culture medium at a concentration of 0.5 mg/ml.
After 6 days of culture, the maximal content of cells expressing the nestin protein (a cytoskeletal protein specific of the neuroepithelial progenitors) was reached.
The cell population enriched for neuroepithelial progenitors was then trypsinated and seeded at a concentration of 1×10^5 cells/cm^2 on a substrate made up of a polyornithine and laminin mix. […]

[3] = tested on: human mesenchymal stem cells (hMSC); experiment: Neural differentiation of hMSCs: immunocytochemical analysis (Nestin, MAP-2); details: bFGF
Protocol: as §1
On Day 0 (D0), hMSC were seeded at a concentration of 3,000 cells/cm^2 in pre-coated 25 cm^2 flasks or 12-well culture plates in complete medium and culture was placed at 37° C. in a humid environment and under 5% CO2. After 24h, medium was changed and replaced by different combinations of media containing either: MEMalpha—bFGF 12.5 ng/mL—FBS 2%—P/S 0.1%; MEMalpha—bFGF 12.5 ng/mL—FBS 10%—P/S 0.1%; MEMalpha—FBS 2%—P/S 0.1% (control condition); MEMalpha—FBS 10%—P/S 0.1% (control condition). The cells were placed at 37° C. in a humid environment and under 5% CO2, and medium was changed twice a week. On Day 8, medium was replaced by medium containing ATRA in the place of bFGF and thus was changed with: MEMalpha—ATRA […]—FBS 2%—P/S 0.1%; MEMalpha—ATRA 20 μM—FBS 10%—P/S 0.1%; MEMalpha—FBS 2%—P/S 0.1% (control condition); MEMalpha—FBS 10%—P/S 0.1% (control condition). The cells were placed at 37° C. in a humid environment and under 5% CO2. Medium was changed twice a week. On Day 15 (D15), cells were harvested by trypsinization for mRNA extraction or fixed immunocytochemical analysis.
Assessment of differentiation was performed by gene expression after extraction of mRNA at various time point (DO, D1, D8 and D15), and immunocytochemical analysis performed at the end of the culture period (D15).
Immunocytochemical analyses were carried out on cells fixed in 4% paraformaldehyde and using standard protocols. After blocking with Triton 1×0.1%/BSA 5% during 30 min, cells were incubated with antibodies directed against Nestin (Millipore) or MAP-2 (Sigma) overnight at +4° C. After washing, appropriate FITC or Cyandidine-5 labelled secondary antibody are added. Nuclei were counterstained with Hoescht 33258 (Sigma). Obervations were performed using Leica TCS LSI system.

[4] = 2% FBS, with or without peptide coating (FIG. 8)

With “W-S-G-W-S-S-C-S-R-S-C-G (WSGWSSCSRSCG) [NX210]” as the substance, how does the “effect of peptide coating on the increase in Nestin, βIII-Tubulin and MAP-2 gene expression” value ([1]; bFGF then ATRA, 2% FBS, peptide coating 80 μg/cm2) read?
Its value is “does not modify this increase”.

What about the MAP-2 expression ([1]; bFGF then ATRA, 10% FBS, peptide coating, vs ×0.75 without peptide (FIG. 5)) of the same substance?
The MAP-2 expression was 1.21 ×.

What about the Nestin expression ([1]; bFGF then ATRA, 10% FBS, peptide coating, vs ×1.2 without peptide (FIG. 5)) of the same substance?
The Nestin expression was 2 ×.

What about the Nestin expression ([1]; patient no 1, day 5, bFGF 10% without ATRA (FIG. 6)) of the same substance?
The Nestin expression was 2 ×.

And the MAP-2 expression ([1]; patient no 2, D5, with bFGF (FIG. 7))?
Its MAP-2 expression is “increased”.

And the βIII-Tubuline expression ([1]; patient no 2, after 5 days of culture, with bFGF (FIG. 7))?
Its βIII-Tubuline expression is “maximized”.

What about the Nestin expression ([1]; patient no 2, bFGF 10% without ATRA, with or without coating (FIG. 7)) of the same substance?
Its Nestin expression is 1.95 ×.

And the “cells expressing the Nestin protein (neuronal precursors)” value ([2]; 0.5 mg/ml NX210 in serum free medium, then 2 days with FGF2, compared to untreated culture)?
Its value is “More cells expressing the Nestin protein”.

And the “response to the specific stimulation by FGF2” value ([2]; during selection of the neuroepithelial progenitors)?
Its value is “promotes a more efficient response”.

What about the “MAP-2 marker expression (immunocytochemistry staining)” value [3, 4] of the same substance?
The value was “stronger staining”.

What about the “Nestine marker expression (immunocytochemistry staining)” value [3, 4] of the same substance?
The value was “stronger staining”.

What about the MAP-2 protein presence ([3]; 10% FBS, peptide coating (FIG. 8)) of the same substance?
The MAP-2 protein presence was “makes possible to observe MAP-2 protein presence”.

And the “Nestine expression (staining intensity)” value ([3]; 10% FBS, with or without peptide coating, compared to the control condition (FIG. 8))?
The value was “maximized”.
